Where two headings read alike, the source gives them in different places.
Experiments:
[1] = test system: S. Typhimurium ATCC 14028 (JSG210) biofilms; assay: Biofilm inhibition assay (crystal violet staining); format: cell-based, Salmonella enterica serovar Typhimurium; settings: for IC50: inhibition of S. Typhimurium biofilm formation, compound present 24 h, crystal violet OD570, mean ± standard deviation
Description: Inhibition of biofilm formation is assessed by growing bacteria in a 96-well plate in the absence (control) or presence of test compounds. After 24 hours, the wells are washed to remove planktonic bacteria, and the remaining surface attached bacteria (biofilm) are stained with crystal violet (CV). The wells are then washed again to remove excess CV, and the remaining CV is solubilized with a solution of acetic acid and then quantified by spectrophotometry at 570 nm. A dose response curve is then constructed from which an IC50 value is determined.
(§1) Salmonella biofilm growth and crystal violet staining. […] For biofilm assays, individual bacterial colonies were picked and used to inoculate LB broth for overnight liquid cultures, which were grown at 37° C. with aeration using a rotating drum. […] Biofilm plates were then submerged in dH2O to wash away any remaining non-adherent bacteria and heat fixed (1h, 60° C.). Biofilms were then stained with a 33% crystal violet solution (6 mL PBS, 3.3 mL crystal violet, 333 μL methanol, 333 μL isopropanol) for 5 min. and washed twice by submerging in dH2O before releasing the bound dye with 33% glacial acetic acid. Biofilm growth was then quantified by measuring the optical density of the solubilized dye at 570 nm using a spectrophotometer (Molecular Devices, SpectraMax M5).
(§2) Biofilm Inhibition and Dispersion Assays and IC50/EC50 Determination. […] Biofilms were then grown as described above for a total of 24 h prior to CV staining. […] Biofilms were then incubated for an additional 24 h in the presence of compounds prior to CV staining. IC50/EC50 values were calculated by plotting normalized compound activity (percent biofilm formed and percent remaining, respectively) as a function of log10 compound concentration and fitting a dose response curve (log[inhibitor] vs. normalized response, variable slope).

[2] = test system: S. Typhimurium ATCC 14028 (JSG210) biofilms; assay: Biofilm dispersion assay on pre-formed biofilms (crystal violet staining); format: cell-based, Salmonella enterica serovar Typhimurium; settings: 50% dispersion of biofilms established 24 h, then 24 h with compound, crystal violet OD570; mean ± standard deviation
Description: as §1, §2

[3] = test system: S. Typhimurium ATCC 14028; assay: Murine model of chronic Salmonella gallbladder carriage, combination with ciprofloxacin; format: in vivo, 129X1/SvJ NRAMP+/+ mice; settings: for reduction in bacterial burden in the gallbladder: 5 mg/kg/day compound + 1 mg/kg/day cipro I.P., 15 dpi
Description: FIGS. 5A-5F provide graphs showing Enumeration of Salmonella in the gallbladder, liver, and spleen of infected mice at 15 dpi. […] Dotted lines represent the limit of detection where applicable; significant differences among the bacterial burden of treatment groups were determined via one-way ANOVA with the Tukey correction for multiple comparisons; ns non-significant, * p<0.05, ** p<0.01, *** p<0.001, **** p<0.0001.
Murine model of chronic Salmonella gallbladder carriage and evaluation of compound therapeutic efficacy in combination with ciprofloxacin. A total of 46 adult 129X1/SvJ NRAMP^+/+ mice (The Jackson Laboratory, Bar Harbour, ME) were used in this study. […] Mice were randomly assigned to treatment groups in two separate experiments. […] Treatments were administered daily via I.P. injection from days 5-15 post-infection. On day 15 post-infection, mice were euthanized and gallbladders, livers, and spleens were removed and homogenized in a volume of 1 mL sterile PBS using a TissueLyser LT bead mill (Qiagen, Valencia, CA). Tissue homogenates were serially diluted in PBS, plated onto LB agar, and incubated at 37° C. for 16h in order to quantify bacterial burden via CFU enumeration.

[4] = test system: S. Typhimurium ATCC 14028; settings: cited from earlier work
[5] = 5 mg/kg/day 7d + 4 mg/kg/day cipro, I.P., days 5-15
[6] = 2 mg/kg/day cipro alone, I.P., days 5-15 post-infection

Row | SMILES | IC50 [1] [µM] | EC50 [2] [µM] | reduction in bacterial burden in the gallbladder ([3]; days 5-15 post-infection) | further results
1 | CN(Cc1ccsc1)CC1CCN(CCc2ccccc2F)CC1 [Compound 1] | 5.7 | 829 | ~2 log-fold | reduction in the bacterial burden in the gallbladder ([4]; compound 1 10 mg/kg/day + ciprofloxacin 1.0 mg/kg/day (Sandala et al., 2020)): 3-4.5 log; reduction of bacterial burden in the gallbladder ([4]; compound 1 at 10 mg/kg/day, previous experiments (Sandala et al., 2020)): several logs
2 | CN(Cc1ccsc1)CC1CCN(CCc2cccc(Cl)c2Cl)CC1 [Compound 7b] |  |  | ~1.5 log-fold | 
3 | CN(Cc1ccsc1)CC1CCN(CCc2ccc(Br)c(Br)c2)CC1 [Compound 7d] |  |  | 4.5-5 log-fold | CFUs recovered in all organs (gallbladder, liver, spleen) [3, 5]: neared the limit of detection; gallbladder bacteria versus 4 mg/kg/day cipro alone [3, 5]: additional significant reduction; reduction of bacterial burden in the gallbladder ([3]; compound with ciprofloxacin): 4.5-5 logs
4 | CN(Cc1ccsc1)CC1CCN(Cc2ccc(I)cc2)CC1 [Compound 8f] | 5.7 ± 2.9 | 77 ± 3 |  | 
5 | Cc1ccccc1CCN1CCC(CN(C)Cc2ccsc2)CC1 [Compound 8g] | 6.3 ± 2.3 | 247 ± 11 |  | 
6 | CC(C)c1ccc(CCN2CCC(CN(C)Cc3ccsc3)CC2)cc1 [Compound 8h] | 2.3 | 123 ± 7 |  | 
7 | CN(Cc1ccsc1)CC1CCN(CCc2cccc(-c3ccccc3)c2)CC1 [Compound 8i] | 1.8 | 31 ± 4 |  | fold improvement of IC50 versus comparator ([1]; 6a vs 4c, 6b vs 4d, 6g vs 4c and 4d, 8i vs 8b): two-fold
8 | CN(Cc1ccsc1)CC1CCN(CCc2ccc(-c3ccccc3)cc2)CC1 [Compound 8j] |  |  | 3.5-4 log-fold | 
9 | CN(Cc1ccsc1)CC1CCN(CCc2cccc3ccccc23)CC1 [Compound 8k] | 2.5 | 28 ± 5 |  | 
10 | O=C(O)c1cn(C2CC2)c2cc(N3CCNCC3)c(F)cc2c1=O [cipro, ciprofloxacin, reference compound] |  |  |  | bacteria recovered from the liver and spleen [3, 6]: reduce the number of bacteria recovered; effect on bacterial burden within the gallbladder [3, 6]: no statistically significant effect; reduction of bacterial gallbladder burden ([3]; 4 mg/kg/day cipro alone, I.P., days 5-15 post-infection): 3-4 logs
